The values below come from US8871765B2, “Substituted 4-(4-fluoro-3-(piperazine-1-carbonyl)benzyl)phthalazin-1(2H)-one derivatives as poly (ADP-ribose) polymerase-1 inhibitors” (Cadila Healthcare Limited, priority 2010, dated 2014).

A word on the IC50: it is the concentration that inhibits the measured activity by half.

One experiment deals with MCF-7 cell line. As to the kind of experiment: Potentiation of cell killing activity of Methyl Methane Sulphonate (MMS) in MCF-7 cells, MTT assay. Type of experiment: cell-based. The conditions noted are these: compound at 100 nM, cell survival without/with alkylating agent MMS. How it is done: Potentiation of cell killing activity of Methyl Methane Sulphonate (MMS) by selected compounds according to present invention was evaluated in MCF-7 cell line obtained from National Centre for Cell Science, Pune, by using MTT assay according to general protocol described in Methods in Molecular Biology, Volume-43, In vitro Toxicity Testing Protocol, Chapter-6, page: 137-149. Compounds were tested for PARP 1 activity based on percent cell survival of MCF-7 cells with alkylating agent MMS.
On the technique in general: Tetrazolium dyes change colour on reduction, which living cells bring about.

In a further experiment the target is T1, PARP-1 (Homo sapiens, UniProt P09874).
T1 construct: purchased Trevigen
Put plainly: PARP-1 inhibitory activity, HT universal colorimetric PARP assay kit (Trevigen). Type of experiment: biochemical. To be noted: HT universal colorimetric PARP assay kit; read-out: PARP-1 activity in vitro IC50 nM). How it is done: The compounds were tested for PARP-1 inhibitory activity by using HT universal colorimetric PARP assay kit obtained from Trevigen, following manufacturer's protocol.

T1 sequence (P09874 whole entry): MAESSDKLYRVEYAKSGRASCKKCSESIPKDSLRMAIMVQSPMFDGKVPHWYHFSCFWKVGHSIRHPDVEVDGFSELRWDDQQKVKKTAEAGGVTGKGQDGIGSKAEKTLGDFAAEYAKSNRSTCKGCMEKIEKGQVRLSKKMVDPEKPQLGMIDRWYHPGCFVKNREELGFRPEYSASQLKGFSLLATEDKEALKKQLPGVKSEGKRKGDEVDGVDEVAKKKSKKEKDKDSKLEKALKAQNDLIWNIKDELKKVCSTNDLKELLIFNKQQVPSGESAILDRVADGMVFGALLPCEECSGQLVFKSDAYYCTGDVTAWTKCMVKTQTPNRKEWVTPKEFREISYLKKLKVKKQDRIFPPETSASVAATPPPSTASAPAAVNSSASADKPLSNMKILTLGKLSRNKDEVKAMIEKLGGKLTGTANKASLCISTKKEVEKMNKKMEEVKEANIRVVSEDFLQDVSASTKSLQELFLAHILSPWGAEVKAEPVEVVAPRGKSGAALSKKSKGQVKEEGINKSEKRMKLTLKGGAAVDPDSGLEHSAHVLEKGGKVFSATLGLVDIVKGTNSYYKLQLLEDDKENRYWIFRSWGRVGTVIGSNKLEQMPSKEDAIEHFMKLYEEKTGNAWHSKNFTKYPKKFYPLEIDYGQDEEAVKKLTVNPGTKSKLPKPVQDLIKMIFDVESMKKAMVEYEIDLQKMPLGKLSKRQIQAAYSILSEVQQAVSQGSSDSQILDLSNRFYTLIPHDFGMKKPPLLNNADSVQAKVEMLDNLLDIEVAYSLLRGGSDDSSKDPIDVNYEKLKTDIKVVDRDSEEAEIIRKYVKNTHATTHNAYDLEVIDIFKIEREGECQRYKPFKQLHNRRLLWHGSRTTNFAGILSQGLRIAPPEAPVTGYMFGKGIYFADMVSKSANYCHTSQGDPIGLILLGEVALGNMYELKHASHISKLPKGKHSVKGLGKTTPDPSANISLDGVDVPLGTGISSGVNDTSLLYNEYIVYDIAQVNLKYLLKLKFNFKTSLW

Regarding `CC(C)(Sc1ccc(Cl)cc1Cl)C(=O)N1CCN(C(=O)c2cc(Cc3n[nH]c(=O)c4ccccc34)ccc2F)CC1` [Example 31, 4-(3-(4-(2-((2,4-dichlorophenyl)thio)-2-methylpropanoyl)piperazine-1-carbonyl)-4-fluorobenzyl)phthalazin-1(2H)-one], the “Survival affected by drug [(−MMS/+MMS)] at 100 nM” value (“Survival affected by drug” for short) with MCF-7 cell line is given as 1.94. Also, at PARP-1, the IC50 amounted to 3.05 nM. On the same counts, the results for `CC(C)(Sc1cccc(F)c1)C(=O)N1CCN(C(=O)c2cc(Cc3n[nH]c(=O)c4ccccc34)ccc2F)CC1` [Example 32, 4-(4-fluoro-3-(4-(2-((3-fluorophenyl)thio)-2-methylpropanoyl)piperazine-1-carbonyl)benzyl)phthalazin-1(2H)-one] are 2.08 and 5.7 nM.

`CC(C)(Sc1ccc(Cl)c(Cl)c1)C(=O)N1CCN(C(=O)c2cc(Cc3n[nH]c(=O)c4ccccc34)ccc2F)CC1` [Example 30, 4-(3-(4-(2-((3,4-dichlorophenyl)thio)-2-methylpropanoyl)piperazine-1-carbonyl)-4-fluorobenzyl)phthalazin-1(2H)-one]: the “Survival affected by drug” value in the experiment on MCF-7 cell line came out at 2.22. On PARP-1, the IC50 turned out to be 9.38 nM.

Take `CC(C)(Oc1cccc(C(F)(F)F)c1)C(=O)N1CCN(C(=O)c2cc(Cc3n[nH]c(=O)c4ccccc34)ccc2F)CC1` [Example 21, 4-(4-fluoro-3-(4-(2-methyl-2-(3-(trifluoromethyl)phenoxy)propanoyl)piperazine-1-carbonyl)benzyl)phthalazin-1(2H)-one]: the “Survival affected by drug” value in the experiment on MCF-7 cell line is listed as 1.62. On PARP-1, the IC50 was 12 nM. On the same counts, the results for `CC(C)(Oc1ccc(Br)cc1Cl)C(=O)N1CCN(C(=O)c2cc(Cc3n[nH]c(=O)c4ccccc34)ccc2F)CC1` [Example 20, 4-(3-(4-(2-(4-bromo-2-chlorophenoxy)-2-methylpropanoyl)piperazine-1-carbonyl)-4-fluorobenzyl)phthalazin-1(2H)-one] are 2.15 and 14.3 nM. On the same counts, the results for `CC(C)(Nc1ccc(F)cc1)C(=O)N1CCN(C(=O)c2cc(Cc3n[nH]c(=O)c4ccccc34)ccc2F)CC1` [Example 34, 4-(4-fluoro-3-(4-(2-((4-fluorophenyl)amino)-2-methylpropanoyl)piperazine-1-carbonyl)-benzyl)phthalazin-1(2H)-one] are 2.85 and 6.68 nM.

As to `CC(C)(Sc1ccccc1Br)C(=O)N1CCN(C(=O)c2cc(Cc3n[nH]c(=O)c4ccccc34)ccc2F)CC1` [Example 29, 4-(3-(4-(2-((2-bromophenyl)thio)-2-methylpropanoyl)piperazine-1-carbonyl)-4-fluorobenzyl)phthalazin-1(2H)-one], the “Survival affected by drug” value in the experiment with MCF-7 cell line was determined as 2.22. The IC50 at PARP-1 was 8.6 nM.

In the case of `COc1cccc(SC(C)(C)C(=O)N2CCN(C(=O)c3cc(Cc4n[nH]c(=O)c5ccccc45)ccc3F)CC2)c1` [Example 28, 4-(4-fluoro-3-(4-(2-((3-methoxyphenyl)thio)-2-methylpropanoyl)piperazine-1-carbonyl)benzyl)phthalazin-1(2H)-one], the “Survival affected by drug” value in the experiment with MCF-7 cell line is given as 2.08. The IC50 at PARP-1 came to 7.08 nM. As to `CC(C)(SC1CCCC1)C(=O)N1CCN(C(=O)c2cc(Cc3n[nH]c(=O)c4ccccc34)ccc2F)CC1` [Example 36, 4-(3-(4-(2-(cyclopentylthio)-2-methylpropanoyl)piperazine-1-carbonyl)-4-fluorobenzyl)phthalazin-1(2H)-one], the “Survival affected by drug” value in the experiment on MCF-7 cell line was determined as 2.59. The IC50 on PARP-1 was 5.17 nM. In the case of `CC(C)(Sc1ccc(Br)cc1)C(=O)N1CCN(C(=O)c2cc(Cc3n[nH]c(=O)c4ccccc34)ccc2F)CC1` [Example 47, 4-(3-(4-(2-((4-bromophenyl)thio)-2-methylpropanoyl)piperazine-1-carbonyl)-4-fluorobenzyl)phthalazin-1(2H)-one], the “Survival affected by drug” value in the experiment on MCF-7 cell line amounted to 2.12. The IC50 at PARP-1 came out at 9.16 nM. With `CC(C)(Oc1ccc(F)cc1F)C(=O)N1CCN(C(=O)c2cc(Cc3n[nH]c(=O)c4ccccc34)ccc2F)CC1` [Example 26, 4-(3-(4-(2-(2,4-difluorophenoxy)-2-methylpropanoyl)piperazine-1-carbonyl)-4-fluorobenzyl)phthalazin-1(2H)-one], in the experiment with MCF-7 cell line, the “Survival affected by drug” value was 2.59. For the same compound, the IC50 on PARP-1 turned out to be 6.43 nM. In the same order, the values of `Cc1cc(OC(C)(C)C(=O)N2CCN(C(=O)c3cc(Cc4n[nH]c(=O)c5ccccc45)ccc3F)CC2)cc(C)c1Br` [Example 37, 4-(3-(4-(2-(4-bromo-3,5-dimethylphenoxy)-2-methylpropanoyl)piperazine-1-carbonyl)-4-fluorobenzyl)phthalazin-1(2H)-one] are 1.61 and 16.5 nM. In the same order, the values of `CC(C)(Sc1ccccc1)C(=O)N1CCN(C(=O)c2cc(Cc3n[nH]c(=O)c4ccccc34)ccc2F)CC1` [Example 46, 4-(4-fluoro-3-(4-(2-methyl-2-(phenylthio)propanoyl)piperazine-1-carbonyl)benzyl)phthalazin-1(2H)-one] are 2.28 and 10.6 nM. For the compound `CC(C)(C(=O)N1CCN(C(=O)c2cc(Cc3n[nH]c(=O)c4ccccc34)ccc2F)CC1)[S+]([O-])c1ccc(Cl)cc1Cl` (stereo not shown) [Example 39, 4-(3-(4-(2-(2,4-dichlorophenylsulfinyl)-2-methylpropanoyl)piperazine-1-carbonyl)-4-fluorobenzyl)phthalazin-1(2H)-one], the “Survival affected by drug” value in the experiment with MCF-7 cell line was determined as 2.29. Moreover, at PARP-1, the IC50 was found to be 9.47 nM. As to `O=C(c1cc(Cc2n[nH]c(=O)c3ccccc23)ccc1F)N1CCN(C(=O)C2CC2)CC1` [AZD, reference compound], in the experiment with MCF-7 cell line, the “Survival affected by drug” value is reported as 2.19. Regarding `CC(C)(Oc1ccccn1)C(=O)N1CCN(C(=O)c2cc(Cc3n[nH]c(=O)c4ccccc34)ccc2F)CC1` [Example 17, 4-(4-fluoro-3-(4-(2-methyl-2-(pyridin-2-yloxy)propanoyl)piperazine-1-carbonyl)benzyl)phthalazin-1(2H)-one], the “Survival affected by drug” value in the experiment on MCF-7 cell line stood at 1.93. In addition, the IC50 on PARP-1 was determined as 13.9 nM. With `COc1ccc(OC(C)(C)C(=O)N2CCN(C(=O)c3cc(Cc4n[nH]c(=O)c5ccccc45)ccc3F)CC2)cc1` [Example 3, 4-(4-fluoro-3-(4-(2-methyl-2-(4-methoxyphenoxy)propanoyl)piperazine-1-carbonyl)benzyl)phthalazin-1(2H)-one], the “Survival affected by drug” value in the experiment with MCF-7 cell line came out at 2.07. Moreover, at PARP-1, the IC50 amounted to 11 nM. In the same order, the values of `CC(C)(C(=O)N1CCN(C(=O)c2cc(Cc3n[nH]c(=O)c4ccccc34)ccc2F)CC1)S(=O)(=O)c1ccccc1` [Example 23, 4-(4-fluoro-3-(4-(2-methyl-2-(phenylsulfonyl)propanoyl)piperazine-1-carbonyl)benzyl)phthalazin-1(2H)-one] are 2.11 and 4.23 nM. In the same order, the values of `CC(C)(Sc1ccccn1)C(=O)N1CCN(C(=O)c2cc(Cc3n[nH]c(=O)c4ccccc34)ccc2F)CC1` [Example 38, 4-(4-fluoro-3-(4-(2-methyl-2-(pyridin-2-ylthio)propanoyl)piperazine-1-carbonyl)benzyl)phthalazin-1(2H)-one] are 1.96 and 5 nM.
